Legend:
PLK1-T210D = target: T1, PLK1-T210D (Homo sapiens, UniProt P53350, T210D); assay: Inhibitory effect against PLK1 activity (Method A), PLK1-T210D, [γ-33P]ATP peptide phosphorylation; format: biochemical; settings: 50 μM ATP, 50 μM substrate peptide, 25° C., 20 minutes
T1 construct: GST (N, cleaved yes); made in house; host or cells: Spodoptera frugiperda Sf9 insect cells (baculovirus)
Text: 1. Measurement of the Inhibitory Effect against PLK 1 Activity (Method A)
It has been known that 210th codon of human PLK1 which originally codes for threonine can be changed to an active type by altering the site into aspartic acid [Molecular and Cell Biology (Mol. Cell. Biol.), 17th edition, 3408 (1997)]. In order to obtain a human active type PLK1 protein, cDNA of mutated PLK1 (PLK1-T210D) of which the 210th codon codes for aspartic acid by substituting a base in the 210th codon of human PLK1 cDNA, was prepared. A baculovirus for which the N terminus of the PLK1-T210D cDNA is fused with GST (glutathione S-transferase) was prepared, and then the PLK1-T210D transfected into a Spodoptera frugiperda (Sf) 9 insect cell was highly expressed as a GST-fused protein. The cells were recovered and suspended in a lysis buffer (50 mM tris-hydrochloric acid buffer (pH 7.4)/150 mM sodium chloride/1 mM EDTA (ethylenediamine tetraacetic acid)/1 mM dithiothreitol/0.1% polyoxyethylene sorbitan monolaurate) to break cells with sonicator, and supernatant was recovered after a centrifugation. The supernatant was reacted on glutathione sepharose beads, and then the beads were washed with a lysis buffer. Thereafter, the beads were reacted in a lysis buffer containing Precision Protease (available from GE Healthcare Bioscience Company) to recover supernatant. […]
The reaction was carried out in accordance with the method of Toyoshima-Morimoto et al. [Nature, Vol. 410, 215-220, (2001)]. […] After washing the phosphocellulose filter with 75 mM phosphate buffer, the filter was dried to measure the radioactivity with a liquid scintillation counter. […]

PLK1 (Wild Type) = target: T2, PLK1 (Wild Type) (Homo sapiens, UniProt P53350); assay: Inhibitory effect against PLK1 activity (Method B), PLK1 wild type, [γ-33P]ATP peptide phosphorylation; format: biochemical; settings: 10 μM ATP, 20 μM substrate peptide, 25° C., 120 minutes
T2 construct: the N terminus of a full-length cDNA of a wild type PLK1 is fused with GST; purchased Carna Biosciences Inc; host or cells: insect cell (baculovirus)
Text: 2. Measurement of Inhibitory Effect against PLK1 Activity (Method B)
Human PLK1 was purchased from Carna Biosciences Inc. According to the Product Information from Carna Biosciences Inc., the present enzyme is an enzyme obtained by preparing a baculovirus for which the N terminus of a full-length cDNA of a wild type PLK1 is fused with GST (glutathione S-transferase), followed by highly expressing PLK1 transfected into an insect cell as a GST-fused protein, and then carrying out a purification with the use of glutathione sepharose chromatography.
For the measurement of the PLK1 activity, a synthetic peptide (arginine-arginine-arginine-aspartic acid-glutamic acid-leucine-methionine-glutamic acid-alanine-serine-phenylalanine-alanine-aspartic acid-glutamine-glutamic acid-alanine-lysine-valine) (SEQ. ID. NO.: 1) in which the serine surrounding sequence of the amino acid sequence No. 198 of CDC25C having been reported as the site for PLK1 substrate [EMBO Report, 3rd edition, 341 (2002)] is altered, was used as a substrate for the PLK1.
The reaction was carried out in accordance with the method as described by Toyoshima-Morimoto et al. [Nature, Vol. 410, 215-220, (2001)]. The volume of the reaction solution was 10.5 μl and the composition of the reaction buffer was a 20 mM Tris-HCl buffer (pH 7.4)/10 mM magnesium chloride/0.5 mM dithiothreitol/1 mM EGTA (ethylene glycol-bis (beta-aminoethylether-N,N,N′,N′-tetraacetic acid). Thereto, purified PLK1, 20 μM of the substrate peptide, 10 μM of non-labeled adenosine triphosphate (ATP), and 0.3 μCi [γ-^33P]-labeled ATP (>2500 Ci/mmole) were added to perform the reaction at a reaction temperature of 25° C. for 120 minutes. Thereafter, 20 μI of a 350 mM phosphate buffer was added to the reaction system to terminate the reaction, and the resultant solution was spotted onto a multi-screen phosphocellulose filter on a 384-well plate. After the phosphocellulose filter is washed with a 75 mM phosphate buffer and then dried, the radioactivity was measured with a liquid cintillation counter. The non-labeled and [γ-^33P]-labeled ATPs, and the multi-screen phosphocellulose filter were purchased from GE Healthcare Bio-Sciences, and Millipore Corporation, respectively.
Addition of the compound of the present invention to the reaction system was carried out by adding 0.5 μl of the solution prepared by preliminarily dissolving the compound in dimethylsulfoxide at a 20-fold concentration of the final concentration. A control was provided by adding 0.5 μl of dimethylsulfoxide to the reaction system.

HeLaS3 cells = assay: Inhibitory effect against cell proliferation: PLK1 inhibition at cellular level (M phase arrest, phospho-histone H3); format: cell-based; settings: Homo sapiens, HeLa S3, 18 hours after addition, concentration inducing 50% of maximum ratio of cells arrested at M phase (histone H3 Ser10 phosphorylation)
Description: 3. Measurement of the Inhibitory Effect against Cell Proliferation: Measurement of the Inhibitory Activity Against PLK1 at Cellular Level
For the measurement of the PLK 1 inhibitory activity of the compound at a cellular level, human uterine cervix cancer cell lines HeLaS3 cells were used. The HeLaS3 cell was obtained from American Type Culture Collection (ATTC), and cultured in a CO2-incubator of saturated steam by using Dulbecco's Modified Eagle's Medium containing 10% fetal calf serum at 37° C. in the presence of 5% CO2.
It has been reported that PLK 1 plays an important role in various stages of mitotic phase (M-phase) in mammalian cells (Nature Review Molecular Cell Biology (Nat. Rev. Mol. Cell. Biol.), Vol. 5, 429, (2004)). In fact, when mammalian cells are treated with PLK 1 siRNA to control the expression level, the cell cycle progression is inhibited and thus the cells are arrested at M phase. At the time, when the phosphorylation level of 10th serine residue on histone H3, which is thought to be required for a chromosome condensation in M phase, is examined, then it is observed that the level is enhanced to a high level. Thus, after treating the cells with the compound according to the invention, the phosphorylation level of histone H3 was examined by the indirect fluorescent antibody technique; the M phase cells were identified by using the level thereof as an indicator to analyze the ratio of cells arrested at M phase; and further EC50 value of each compound was calculated to evaluate the PLK1 inhibitory activity at a cellular level.
First, HeLaS3 cells were seeded into a lysine-treated 96-well plate (Falcon Corp.) in the proportion of 3,000 per one well, and allowed to stand still in the above-mentioned CO2 incubator. 24 hours after the seeding, the compound according to the invention, which is diluted in series, was added into each well of the plate, and further allowed to stand still in the CO2 incubator. 18 hours after the addition of the compound according to the invention, the culture medium containing the compound according to the invention in each well of the plate was removed, and then 100 μL of ice-cold 100% methanol (Wako Pure Chemical Industries, Ltd.) was added, to carry out cell fixation for 10 minutes and treatment of increasing the membrane permeability. Subsequently, to the wells in which the methanol was removed, 50 μL of 1% BSA/PBS was added, and then blocking was carried out for 30 minutes. Thereafter, for the primary antibody reaction, 50 μL of 1% BSA/PBS containing a […] Anti-phospho Histone H3 (Ser10) antibody (Upstate Corp.) was added to the wells, and the plate was left over at room temperature for 90 minutes. After terminating the reaction, each well was once washed with PBS; and for the second antibody reaction, 50 μL of 1% BSA/PBS containing […] Cy5-labelled antirabbit IgG (H+L) antibody (Chemicon) and 10 ug/mL DAPI (Sigma) which is a nucleus staining regent, was added, and further left over at room temperature for 90 minutes. After terminating the reaction, the reaction solution in wells was removed and replaced with 100 μL of PBS, and then fluorescence images were captured by using IN Cell Analyzer 1000 (manufactured by GE Amersham) to analyze the ratio of M phase cells (Mitotic index) in each view. When the maximum value of the ratio of cells arrested at M phase which can be induced by each drug is assumed as 100%, the drug concentration required for inducing 50% out of that 100% is defined as EC50.

T1 sequence (P53350 whole entry T210D): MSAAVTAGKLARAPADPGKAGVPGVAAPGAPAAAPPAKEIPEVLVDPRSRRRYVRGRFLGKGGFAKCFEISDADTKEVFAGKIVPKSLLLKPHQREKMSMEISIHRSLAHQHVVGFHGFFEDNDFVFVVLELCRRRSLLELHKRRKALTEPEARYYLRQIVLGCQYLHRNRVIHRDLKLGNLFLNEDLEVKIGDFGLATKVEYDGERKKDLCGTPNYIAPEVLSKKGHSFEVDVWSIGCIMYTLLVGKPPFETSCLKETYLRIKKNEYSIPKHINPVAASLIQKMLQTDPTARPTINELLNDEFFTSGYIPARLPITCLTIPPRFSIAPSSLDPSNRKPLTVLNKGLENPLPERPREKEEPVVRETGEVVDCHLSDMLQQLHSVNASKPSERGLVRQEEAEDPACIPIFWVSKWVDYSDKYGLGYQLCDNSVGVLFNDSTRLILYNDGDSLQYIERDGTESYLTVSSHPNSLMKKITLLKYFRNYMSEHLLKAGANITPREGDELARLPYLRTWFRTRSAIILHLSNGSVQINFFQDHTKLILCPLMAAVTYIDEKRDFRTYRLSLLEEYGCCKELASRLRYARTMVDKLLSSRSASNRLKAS
T2 sequence (P53350 whole entry, the tested form may be a part): as the sequence (P53350 whole entry T210D) above, with D210T counted along it

Compound	IC50 (PLK1-T210D) [nM]	IC50 (PLK1 (Wild Type)) [nM]	EC50 (HeLaS3 cells) [nM]
CCc1cccn2c(-c3nc(N[C@@H](C)c4ccc(C(O)C5CCN(C)CC5)cc4)ncc3C#N)cnc12 (single isomer, unassigned) [Example 24]	4.1	1.4	4.6
CCc1cccn2c(-c3nc(N[C@@H](C)c4ccc(C(O)[C@@H]5CCCN(C)C5)cc4)ncc3C#N)cnc12 (single isomer, unassigned) [Example 43]	7	1.4	4
C[C@H](Nc1ncc(F)c(-c2cnc3c(Cl)cccn23)n1)c1ccc(C(O)C(C)(C)N(C)C)cc1 (single isomer, unassigned) [Example 85]		3.4	11
CC(C)N1CC(C(O)c2ccc([C@H](C)Nc3ncc(F)c(-c4cnc5c(Cl)cccn45)n3)cc2)C1 (single isomer, unassigned) [Example 89]		2.4	13.9
CCc1cccn2c(-c3nc(N[C@@H](C)c4ccc([C@H](O)CNC(C)(C)C)cc4)ncc3C#N)cnc12 [Example 5, 2-[((1S)-1-{4-[(1S)-2-(tert-butylamino)-1-hydroxyethyl]phenyl}ethyl)amino]-4-(8-ethylimidazo[1,2-a]pyridin-3-yl)pyrimidine-5-carbonitrile]		2.3	2.6
C[C@H](Nc1ncc(F)c(-c2cnc3c(Cl)cccn23)n1)c1ccc([C@H](O)CNC(C)(C)C)cc1 [Example 67, (1S)-2-(tert-butylamino)-1-[4-((1S)-1-{[4-(8-chloroimidazo[1,2-a]pyridin-3-yl)-5-fluoropyrimidin-2-yl]amino}ethyl)phenyl]ethanol]		2.6	4

Further compounds by falling EC50 (HeLaS3 cells), results first:

IC50 (PLK1-T210D) [nM]	IC50 (PLK1 (Wild Type)) [nM]	EC50 (HeLaS3 cells) [nM]	Compound
	10	5.7	Cc1cnc(N[C@@H](C)c2ccc([C@H](O)CNC(C)(C)C)cc2)nc1-c1cnc2c(C3CC3)cccn12 [Example 73, (1S)-2-(tert-butylamino)-1-[4-((1S)-1-{[4-(8-cyclopropylimidazo[1,2-a]pyridin-3-yl)-5-methylpyrimidin-2-yl]amino}ethyl)phenyl]ethanol]
11		5	CCc1cccn2c(-c3nc(N[C@@H](C)c4ccc(C(O)[C@H]5CCCN5C)cc4)ncc3C#N)cnc12 (stereo partly drawn) [Example 55, 4-(8-ethylimidazo[1,2-a]pyridin-3-yl)-2-{[(1S)-1-(4-{hydroxy[(2R)-1-methylpyrrolidin-2-yl]methyl}phenyl)ethyl]amino}pyrimidine-5-carbonitrile]
	2.2	3.5	C[C@H](Nc1ncc(F)c(-c2cnc3c(Cl)cccn23)n1)c1ccc([C@H](O)CNC2(C)CCCC2)cc1 [Example 71, (1S)-1-[4-((1S)-1-{[4-(8-chloroimidazo[1,2-a]pyridin-3-yl)-5-fluoropyrimidin-2-yl]amino}ethyl)phenyl]-2-[(1-methylcyclopentyl)amino]ethanol]
	1.8	2.9	C[C@H](Nc1ncc(C#N)c(-c2cnc3c(C4CC4)cccn23)n1)c1ccc([C@H](O)[C@@]2(C)CCCN2C)cc1 [Example 66, 4-(8-cyclopropylimidazo[1,2-a]pyridin-3-yl)-2-[((1S)-1-{4-[(S)-[(2R)-1,2-dimethylpyrrolidin-2-yl](hydroxy)methyl]phenyl}ethyl)amino]pyrimidine-5-carbonitrile]
